PMC6199744, “Development of Chemical Proteomics for the Folateome and Analysis of the Kinetoplastid Folateome” (ACS Infectious Diseases, 2018)
Read-outs that look alike come from different tables or passages of the source.

Columns and labels:
Type in all cases: binding
[1] = molecular target: T1, HeLa cell extract proteins (Homo sapiens, UniProt Q96QK1)
T1 construct: endogenous in cells; host or cells: HeLa cell extract

[2] = molecular target: T2, HeLa cell extract proteins (Homo sapiens, UniProt Q9NQR4)
T2 construct: endogenous in cells; host or cells: HeLa cell extract
T2 sequence (Q9NQR4 1-276): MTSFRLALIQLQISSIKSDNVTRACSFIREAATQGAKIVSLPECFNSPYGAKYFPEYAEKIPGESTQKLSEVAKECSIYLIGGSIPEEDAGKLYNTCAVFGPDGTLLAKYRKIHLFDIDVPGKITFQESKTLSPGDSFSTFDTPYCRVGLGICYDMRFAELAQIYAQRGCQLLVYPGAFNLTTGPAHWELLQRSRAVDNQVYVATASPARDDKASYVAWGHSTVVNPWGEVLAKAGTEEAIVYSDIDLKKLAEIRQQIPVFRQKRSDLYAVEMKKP

[3] = molecular target: T3, HeLa cell extract proteins (Homo sapiens, UniProt P61019)
T3 construct: endogenous in cells; host or cells: HeLa cell extract

[4] = molecular target: T4, HeLa cell extract proteins (Homo sapiens, UniProt Q15645)
T4 construct: endogenous in cells; host or cells: HeLa cell extract
T4 sequence (Q15645 1-432): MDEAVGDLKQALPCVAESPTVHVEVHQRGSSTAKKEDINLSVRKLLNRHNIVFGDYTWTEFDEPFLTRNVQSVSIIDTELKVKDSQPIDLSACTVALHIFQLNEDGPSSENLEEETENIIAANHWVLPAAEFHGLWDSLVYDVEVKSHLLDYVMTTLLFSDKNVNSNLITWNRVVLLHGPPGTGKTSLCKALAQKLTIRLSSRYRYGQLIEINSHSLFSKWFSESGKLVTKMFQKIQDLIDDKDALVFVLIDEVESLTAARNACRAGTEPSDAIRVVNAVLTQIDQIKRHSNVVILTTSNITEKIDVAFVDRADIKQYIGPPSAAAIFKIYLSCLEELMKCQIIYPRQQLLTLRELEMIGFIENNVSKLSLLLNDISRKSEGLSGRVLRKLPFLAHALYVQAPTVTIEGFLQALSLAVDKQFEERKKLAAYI

[5] = molecular target: T5, HeLa cell extract proteins (Homo sapiens, UniProt Q9NR09)
T5 construct: endogenous in cells; host or cells: HeLa cell extract

[6] = molecular target: T6, HeLa cell extract proteins (Homo sapiens, UniProt Q92973)
T6 construct: endogenous in cells; host or cells: HeLa cell extract
T6 sequence (Q92973 1-898): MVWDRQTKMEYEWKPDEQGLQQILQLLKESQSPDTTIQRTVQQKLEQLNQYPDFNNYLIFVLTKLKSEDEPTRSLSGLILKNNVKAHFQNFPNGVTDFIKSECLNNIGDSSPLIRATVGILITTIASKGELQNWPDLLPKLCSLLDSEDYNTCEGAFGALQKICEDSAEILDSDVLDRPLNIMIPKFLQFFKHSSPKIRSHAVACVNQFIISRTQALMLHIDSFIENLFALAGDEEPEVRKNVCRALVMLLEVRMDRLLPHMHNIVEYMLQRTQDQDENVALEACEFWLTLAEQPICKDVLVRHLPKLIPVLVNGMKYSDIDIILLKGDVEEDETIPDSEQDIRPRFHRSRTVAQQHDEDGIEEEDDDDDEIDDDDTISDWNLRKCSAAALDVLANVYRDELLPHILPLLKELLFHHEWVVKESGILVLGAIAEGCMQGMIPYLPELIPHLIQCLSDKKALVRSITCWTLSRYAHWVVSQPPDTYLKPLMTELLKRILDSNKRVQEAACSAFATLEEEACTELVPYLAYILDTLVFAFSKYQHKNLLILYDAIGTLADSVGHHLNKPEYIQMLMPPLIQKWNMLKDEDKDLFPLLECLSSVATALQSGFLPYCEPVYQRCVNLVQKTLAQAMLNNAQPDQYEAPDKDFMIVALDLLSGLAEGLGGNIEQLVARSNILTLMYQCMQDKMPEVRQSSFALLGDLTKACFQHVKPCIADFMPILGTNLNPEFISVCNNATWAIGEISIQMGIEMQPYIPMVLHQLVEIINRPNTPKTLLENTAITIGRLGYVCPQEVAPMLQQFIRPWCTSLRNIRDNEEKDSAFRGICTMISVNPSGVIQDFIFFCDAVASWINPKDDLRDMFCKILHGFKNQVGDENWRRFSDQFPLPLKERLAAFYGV

[7] = molecular target: T7, HeLa cell extract proteins (Homo sapiens, UniProt P16615)
T7 construct: endogenous in cells; host or cells: HeLa cell extract

[8] = HeLa, protein BIRC6 (B[…] REPEAT-CONTAINING 6)

T3 sequence (P61019 whole entry): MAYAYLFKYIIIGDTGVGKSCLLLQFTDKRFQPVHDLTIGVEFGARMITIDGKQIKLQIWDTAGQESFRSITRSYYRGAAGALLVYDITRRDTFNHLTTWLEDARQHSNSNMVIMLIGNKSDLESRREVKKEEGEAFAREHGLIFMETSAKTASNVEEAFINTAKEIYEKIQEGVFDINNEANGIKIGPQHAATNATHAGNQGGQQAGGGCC
T5 sequence (Q9NR09 whole entry): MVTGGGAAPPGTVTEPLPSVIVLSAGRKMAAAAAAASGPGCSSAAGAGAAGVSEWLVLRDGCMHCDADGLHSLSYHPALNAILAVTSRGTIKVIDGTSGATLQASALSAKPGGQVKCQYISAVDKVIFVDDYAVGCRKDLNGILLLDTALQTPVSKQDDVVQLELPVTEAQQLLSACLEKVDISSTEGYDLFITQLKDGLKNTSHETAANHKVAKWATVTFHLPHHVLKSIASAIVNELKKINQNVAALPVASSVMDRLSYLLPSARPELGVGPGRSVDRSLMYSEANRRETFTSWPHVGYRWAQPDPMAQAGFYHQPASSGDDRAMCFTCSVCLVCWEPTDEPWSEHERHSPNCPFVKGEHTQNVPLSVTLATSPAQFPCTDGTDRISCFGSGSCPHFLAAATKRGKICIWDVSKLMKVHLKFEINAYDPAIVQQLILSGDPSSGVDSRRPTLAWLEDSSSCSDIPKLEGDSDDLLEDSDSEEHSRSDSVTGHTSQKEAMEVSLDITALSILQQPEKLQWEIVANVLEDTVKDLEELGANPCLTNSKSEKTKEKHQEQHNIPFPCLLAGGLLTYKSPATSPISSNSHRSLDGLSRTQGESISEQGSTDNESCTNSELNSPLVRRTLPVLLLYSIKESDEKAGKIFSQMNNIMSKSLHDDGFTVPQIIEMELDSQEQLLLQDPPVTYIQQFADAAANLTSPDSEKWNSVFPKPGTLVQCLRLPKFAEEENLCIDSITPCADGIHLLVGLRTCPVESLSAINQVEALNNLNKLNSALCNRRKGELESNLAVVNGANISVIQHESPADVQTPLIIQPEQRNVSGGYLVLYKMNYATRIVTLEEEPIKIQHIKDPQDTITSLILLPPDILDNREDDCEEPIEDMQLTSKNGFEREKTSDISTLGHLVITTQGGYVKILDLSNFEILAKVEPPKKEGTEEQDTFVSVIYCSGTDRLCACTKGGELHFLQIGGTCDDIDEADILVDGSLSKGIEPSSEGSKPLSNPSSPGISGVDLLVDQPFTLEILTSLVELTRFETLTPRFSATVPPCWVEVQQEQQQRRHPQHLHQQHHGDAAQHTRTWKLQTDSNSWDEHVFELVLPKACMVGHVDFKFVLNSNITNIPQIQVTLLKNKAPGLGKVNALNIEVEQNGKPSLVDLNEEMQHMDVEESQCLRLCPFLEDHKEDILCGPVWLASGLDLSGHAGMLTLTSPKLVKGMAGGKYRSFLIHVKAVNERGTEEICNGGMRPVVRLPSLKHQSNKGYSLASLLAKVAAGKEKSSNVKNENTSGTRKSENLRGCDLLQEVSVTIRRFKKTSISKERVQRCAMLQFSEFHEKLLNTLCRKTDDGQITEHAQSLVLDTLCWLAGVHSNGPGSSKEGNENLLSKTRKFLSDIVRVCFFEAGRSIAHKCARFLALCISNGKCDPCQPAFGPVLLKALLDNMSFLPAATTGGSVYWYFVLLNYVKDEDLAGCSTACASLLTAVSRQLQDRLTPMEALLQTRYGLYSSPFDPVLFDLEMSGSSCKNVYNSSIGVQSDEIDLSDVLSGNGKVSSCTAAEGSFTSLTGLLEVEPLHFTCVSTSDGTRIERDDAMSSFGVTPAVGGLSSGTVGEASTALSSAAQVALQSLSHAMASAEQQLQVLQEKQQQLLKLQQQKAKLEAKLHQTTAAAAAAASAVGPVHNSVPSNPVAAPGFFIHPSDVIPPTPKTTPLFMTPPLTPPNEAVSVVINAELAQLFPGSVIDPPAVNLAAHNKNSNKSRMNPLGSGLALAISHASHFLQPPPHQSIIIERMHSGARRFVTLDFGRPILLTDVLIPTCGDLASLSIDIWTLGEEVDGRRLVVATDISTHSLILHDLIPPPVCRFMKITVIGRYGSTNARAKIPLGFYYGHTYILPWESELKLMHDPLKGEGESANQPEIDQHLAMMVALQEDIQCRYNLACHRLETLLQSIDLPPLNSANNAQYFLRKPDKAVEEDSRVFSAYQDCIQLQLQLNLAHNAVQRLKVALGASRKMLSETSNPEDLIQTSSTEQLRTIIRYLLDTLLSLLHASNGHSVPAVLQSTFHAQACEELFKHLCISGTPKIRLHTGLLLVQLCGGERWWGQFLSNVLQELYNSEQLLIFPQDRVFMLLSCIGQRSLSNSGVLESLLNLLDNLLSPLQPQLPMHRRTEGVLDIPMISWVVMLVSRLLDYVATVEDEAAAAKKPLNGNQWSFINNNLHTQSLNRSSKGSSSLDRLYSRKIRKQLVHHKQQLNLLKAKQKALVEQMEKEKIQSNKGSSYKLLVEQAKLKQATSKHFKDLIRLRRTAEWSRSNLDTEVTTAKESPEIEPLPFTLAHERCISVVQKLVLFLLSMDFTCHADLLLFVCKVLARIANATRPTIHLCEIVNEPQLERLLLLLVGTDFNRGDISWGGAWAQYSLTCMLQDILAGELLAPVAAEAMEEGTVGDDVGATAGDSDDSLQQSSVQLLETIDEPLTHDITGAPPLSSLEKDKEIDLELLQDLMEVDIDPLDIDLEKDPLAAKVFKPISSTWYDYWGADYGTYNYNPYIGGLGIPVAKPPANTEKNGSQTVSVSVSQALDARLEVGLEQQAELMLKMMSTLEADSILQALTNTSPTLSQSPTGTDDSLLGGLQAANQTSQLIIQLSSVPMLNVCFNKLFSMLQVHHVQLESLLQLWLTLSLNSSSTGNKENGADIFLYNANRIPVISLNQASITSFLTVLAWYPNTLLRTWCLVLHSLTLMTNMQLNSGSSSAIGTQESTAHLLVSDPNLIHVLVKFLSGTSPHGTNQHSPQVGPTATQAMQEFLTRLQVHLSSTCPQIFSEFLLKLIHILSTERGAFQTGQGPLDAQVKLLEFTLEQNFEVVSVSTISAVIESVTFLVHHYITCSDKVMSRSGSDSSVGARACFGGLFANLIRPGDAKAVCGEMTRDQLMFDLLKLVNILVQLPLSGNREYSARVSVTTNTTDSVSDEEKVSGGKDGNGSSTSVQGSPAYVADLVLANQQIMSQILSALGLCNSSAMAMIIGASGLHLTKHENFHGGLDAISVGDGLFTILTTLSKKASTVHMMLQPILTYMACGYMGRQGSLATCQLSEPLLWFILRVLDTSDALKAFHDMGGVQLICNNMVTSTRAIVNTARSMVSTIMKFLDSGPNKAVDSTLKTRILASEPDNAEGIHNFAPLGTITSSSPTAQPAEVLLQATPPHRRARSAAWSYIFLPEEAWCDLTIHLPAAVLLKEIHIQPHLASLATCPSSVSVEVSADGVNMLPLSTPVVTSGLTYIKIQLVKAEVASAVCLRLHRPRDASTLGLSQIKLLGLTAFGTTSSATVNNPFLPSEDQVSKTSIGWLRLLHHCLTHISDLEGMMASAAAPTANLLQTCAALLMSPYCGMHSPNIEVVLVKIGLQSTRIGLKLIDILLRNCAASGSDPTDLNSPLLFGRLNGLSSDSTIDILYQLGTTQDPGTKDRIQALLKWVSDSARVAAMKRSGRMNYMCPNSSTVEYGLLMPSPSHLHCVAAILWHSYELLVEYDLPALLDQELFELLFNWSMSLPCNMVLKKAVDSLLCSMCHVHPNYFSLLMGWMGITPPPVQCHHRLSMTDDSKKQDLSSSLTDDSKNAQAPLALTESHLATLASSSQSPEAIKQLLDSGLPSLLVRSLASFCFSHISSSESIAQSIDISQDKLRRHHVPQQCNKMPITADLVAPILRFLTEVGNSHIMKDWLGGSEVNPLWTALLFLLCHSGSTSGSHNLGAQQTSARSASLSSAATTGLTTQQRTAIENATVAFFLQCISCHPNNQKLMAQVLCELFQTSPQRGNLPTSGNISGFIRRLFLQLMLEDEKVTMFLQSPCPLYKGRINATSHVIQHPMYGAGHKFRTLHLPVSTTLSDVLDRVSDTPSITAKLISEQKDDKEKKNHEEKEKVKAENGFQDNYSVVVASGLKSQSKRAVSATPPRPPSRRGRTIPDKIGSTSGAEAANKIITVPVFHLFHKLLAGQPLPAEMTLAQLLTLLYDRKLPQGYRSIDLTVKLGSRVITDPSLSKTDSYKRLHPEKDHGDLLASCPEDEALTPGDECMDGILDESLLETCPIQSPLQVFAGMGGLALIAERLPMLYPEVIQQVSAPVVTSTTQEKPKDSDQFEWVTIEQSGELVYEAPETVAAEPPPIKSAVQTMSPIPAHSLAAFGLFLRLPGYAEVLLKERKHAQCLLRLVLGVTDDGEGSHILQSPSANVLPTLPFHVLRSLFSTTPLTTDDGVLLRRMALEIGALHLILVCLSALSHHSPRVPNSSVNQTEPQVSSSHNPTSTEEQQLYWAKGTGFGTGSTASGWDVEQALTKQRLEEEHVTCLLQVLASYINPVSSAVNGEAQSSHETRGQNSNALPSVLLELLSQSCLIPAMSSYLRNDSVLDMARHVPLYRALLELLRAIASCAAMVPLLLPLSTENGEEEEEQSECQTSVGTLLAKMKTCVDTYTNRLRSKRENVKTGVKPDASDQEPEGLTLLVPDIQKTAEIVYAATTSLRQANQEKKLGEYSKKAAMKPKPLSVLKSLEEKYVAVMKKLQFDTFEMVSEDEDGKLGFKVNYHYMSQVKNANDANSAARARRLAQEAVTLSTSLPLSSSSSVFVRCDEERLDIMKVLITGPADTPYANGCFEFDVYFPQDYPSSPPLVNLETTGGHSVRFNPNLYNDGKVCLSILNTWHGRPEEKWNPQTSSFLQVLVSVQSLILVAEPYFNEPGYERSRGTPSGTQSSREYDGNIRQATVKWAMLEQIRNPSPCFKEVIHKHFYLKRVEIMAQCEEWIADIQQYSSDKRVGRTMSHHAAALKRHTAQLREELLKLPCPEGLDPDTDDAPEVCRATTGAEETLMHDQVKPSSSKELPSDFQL

Nc1nc2c(c(=O)[nH]1)N(C=O)C(CNc1ccc(C(=O)N[C@@H](CCC(=O)O)C(=O)O)cc1)CN2 (stereo partly shown) [LEU, leucovorin]
fold changes relative to vehicle control ([1]; HeLa, protein VPS35): 0.91
fold changes relative to vehicle control ([2]; HeLa, captured protein NIT2): 1.04
fold changes relative to vehicle control ([3]; HeLa, protein RAB2A): 0.85
fold changes relative to vehicle control ([4]; HeLa, protein TRIP13): 0.92
fold changes relative to vehicle control [5, 8]: 1.08
fold changes relative to vehicle control ([6]; HeLa, protein TNPO1): 0.98
fold changes relative to vehicle control ([7]; HeLa, protein ATP2A2): 1

Nc1nc2[nH]cc(CCc3ccc(C(=O)N[C@@H](CCC(=O)O)C(=O)O)cc3)c2c(=O)[nH]1 [PTX, pemetrexed]
fold changes relative to vehicle control [1]: 1.05
fold changes relative to vehicle control [2]: 0.89
fold changes relative to vehicle control [3]: 0.93
fold changes relative to vehicle control [4]: 0.88
fold changes relative to vehicle control [5]: 1
fold changes relative to vehicle control [6]: 0.94
fold changes relative to vehicle control [7]: 1.03

CCCCCCOc1ccc(Cc2cnc(N)nc2N)cc1 [compound 1]
fold changes relative to vehicle control ([1]; protein VPS35, HeLa): 1.13
fold changes relative to vehicle control ([2]; protein NIT2, HeLa): 0.99
fold changes relative to vehicle control ([3]; captured protein RAB2A, HeLa): 0.64
fold changes relative to vehicle control ([4]; HeLa, protein TRIP13): 0.96
fold changes relative to vehicle control ([5]; HeLa, protein BIRC6): 1.06
fold changes relative to vehicle control ([6]; protein TNPO1, HeLa): 1.01
fold changes relative to vehicle control ([7]; HeLa, protein ATP2A2): 1.05

CCCCCCOc1cccc(Cc2cnc(N)nc2N)c1 [compound 2]
fold changes relative to vehicle control ([1]; protein VPS35, HeLa): 1.7
fold changes relative to vehicle control ([2]; protein NIT2, HeLa): 1.12
fold changes relative to vehicle control ([3]; captured protein RAB2A, HeLa): 1.09
fold changes relative to vehicle control ([4]; HeLa, protein TRIP13): 1.17
fold changes relative to vehicle control ([5]; HeLa, protein BIRC6): 0.92
fold changes relative to vehicle control ([6]; protein TNPO1, HeLa): 1.1
fold changes relative to vehicle control ([7]; HeLa, protein ATP2A2): 1.12

Nc1nc2cccc(-c3ccccc3)c2n1Cc1ccc(Cl)c(Cl)c1 [compound 3]
fold changes relative to vehicle control ([1]; protein VPS35, HeLa): 0.96
fold changes relative to vehicle control ([2]; protein NIT2, HeLa): 0.84
fold changes relative to vehicle control ([3]; captured protein RAB2A, HeLa): 0.83
fold changes relative to vehicle control ([4]; HeLa, protein TRIP13): 1.24
fold changes relative to vehicle control ([5]; HeLa, protein BIRC6): 1.12
fold changes relative to vehicle control ([6]; protein TNPO1, HeLa): 1
fold changes relative to vehicle control ([7]; HeLa, protein ATP2A2): 0.98

NCCOCCOCC(=O)Nc1nc2ncc(CNc3ccc(C(=O)NC(CCC(=O)O)C(=O)O)cc3)nc2c(=O)[nH]1 (stereo not shown) [compound 6]
fold changes relative to vehicle control ([1]; HeLa, protein VPS35): 1.15
fold changes relative to vehicle control ([2]; HeLa, captured protein NIT2): 0.84
fold changes relative to vehicle control ([3]; HeLa, protein RAB2A): 1.09
fold changes relative to vehicle control ([4]; HeLa, protein TRIP13): 0.94
fold changes relative to vehicle control [5, 8]: 1.06
fold changes relative to vehicle control ([6]; HeLa, protein TNPO1): 1.03
fold changes relative to vehicle control ([7]; HeLa, protein ATP2A2): 1.03

NCCCNc1ccc(C(=O)NC(CCC(=O)O)C(=O)O)cc1 (stereo not shown) [compound 7]
fold changes relative to vehicle control ([1]; HeLa, protein VPS35): 1.1
fold changes relative to vehicle control ([2]; HeLa, captured protein NIT2): 0.96
fold changes relative to vehicle control ([3]; HeLa, protein RAB2A): 0.94
fold changes relative to vehicle control ([4]; HeLa, protein TRIP13): 1.09
fold changes relative to vehicle control [5, 8]: 1.12
fold changes relative to vehicle control ([6]; HeLa, protein TNPO1): 0.99
fold changes relative to vehicle control ([7]; HeLa, protein ATP2A2): 0.99
